Values of other authors as cited in US20110027361A1, “EXTENDED RELEASE DOSAGE FORM OF PALIPERIDONE” (TORRENT PHARMACEUTICALS LTD., priority 2008, published 2011).

Columns and labels:
[1] = in vivo

In the case of `Cc1nc2n(c(=O)c1CCN1CCC(c3noc4cc(F)ccc34)CC1)CCCC2O` (stereo not shown) [Paliperidone], the “solubility in 0.1N HCl” value (0.1N HCl) is given as “sparingly soluble”, the “solubility in methylene chloride” value (methylene chloride) is given as “sparingly soluble” and the solubility in water (water) is given as “practically insoluble”. The terminal elimination half-life [1] was “approximately 23 hours”.
